The text below walks through data of US20250320224A1 (DOMAIN THERAPEUTICS, priority 2022, published 2025).

Molecules are shown by their SMILES. Counter-ions that a name gives are not always drawn. Some results are limits rather than exact numbers.

The target in this assay is T1, human PAR-2 (hPAR-2) receptor (Homo sapiens, UniProt P55085).
T1 construct: expressed in HEK-293 cells in an endogenous manner; endogenous in cells; host or cells: HEK-293
T1 sequence (P55085 26-397): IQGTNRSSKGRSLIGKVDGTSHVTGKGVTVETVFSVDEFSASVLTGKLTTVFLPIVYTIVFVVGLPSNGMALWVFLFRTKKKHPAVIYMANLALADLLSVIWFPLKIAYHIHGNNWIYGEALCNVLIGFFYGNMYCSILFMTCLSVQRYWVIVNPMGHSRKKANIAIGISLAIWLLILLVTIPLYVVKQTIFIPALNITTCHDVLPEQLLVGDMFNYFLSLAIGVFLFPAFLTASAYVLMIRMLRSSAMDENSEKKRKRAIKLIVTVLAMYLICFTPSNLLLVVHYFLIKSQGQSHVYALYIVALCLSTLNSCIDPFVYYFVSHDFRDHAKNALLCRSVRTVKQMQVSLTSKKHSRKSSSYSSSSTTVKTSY
In words: In vitro human PAR-2 functional antagonist activity using calcium assays. It counts as cell-based. The conditions noted are these: hPAR-2 endogenously expressed in HEK-293 cells; stimulated by 2-Furoyl-LIGRLO-NH2 peptide; Fluo4AM intracellular calcium, FLIPR Tetra. The method, then:
Example 283: In Vitro Human PAR-2 Functional Antagonist Activity Using Calcium Assays
Examples of the present invention were tested successively for their agonist and antagonist activities on human PAR-2 (hPAR-2) receptor expressed in HEK-293 cells in an endogenous manner. Compounds exert agonist activity if, by themselves in absence of the 2-Furoyl-LIGRLO-NH2 peptide (selective hPAR-2 agonist), they activate PAR-2; they exert antagonist activity if they decrease the action of the 2-Furoyl-LIGRLO-NH2 peptide on the receptor. The assay used to determine compound activity is based on calcium measurement.
Cell Culture: HEK-293 cells were maintained in Dulbecco's Modified Eagle's Medium supplemented with 10% Foetal Calf Serum, 1% Penicillin/Streptomycin at 37° C./5% CO2. Flasks for tests (F75) are seeded with 6e+06 cells 24 h before the experiment at 37° C./5% CO2.
Calcium assay: Receptor activity was detected by changes in intracellular calcium measured using the fluorescent Ca^2+ sensitive dye, Fluo4AM (Molecular Probes).
The day of the assay, medium was replaced by assay buffer (HBSS 1× (Gibco 14175-053), Hepes 20 mM, MgSO4-7H2O 1 mM, Na2CO3 3.3 mM, CaCl2—2H2O 2.6 mM, 0.5% bovine serum albumin (BSA), Probenecid 2.5 mM, 0.1 mg/mL Pluronic Acid) and complemented with 1 μM Fluo4AM and cells were incubated during 1:30 h at 37° C.
Cells were then detached, resuspended in assay buffer and seeded in 384 wells, transparent-flat bottom black walled plates (2e+04 cells per well). Plates were incubated at +22° C. for 20 min. Compounds stock solutions were prepared in 100% DMSO and dilutions in test buffer were carried out in polypropylene plates with a digital dispenser (D300e, Tecan). Compounds were added to the cells and intracellular Ca^2+ measurements were collected at the same time on FLIPR Tetra® (Molecular Devices) with specific filters (Exc: 470-495 nm/Em: 515-575 nm).
Agonist and antagonist activities of compounds were consecutively evaluated on the same cell plate. Agonist activity was first measured after 10 min incubation with the compound alone. Then, cells were stimulated by an […] of the 2-Furoyl-LIGRLO-NH2 peptide and fluorescence was recorded for an additional 5 min. EC50 of the 2-Furoyl-LIGRLO-NH2 peptide was the concentration giving 80% of the maximal 2-Furoyl-LIGRLO-NH2 response. Agonist activities are evaluated in comparison to basal signals evoked by assay buffer or maximal 2-Furoyl-LIGRLO-NH2 response. […] Antagonist activities are evaluated in comparison to basal signals evoked by assay buffer or EC50 of 2-Furoyl-LIGRLO-NH2 alone.
For orientation: A change in cytosolic calcium serves as a functional read-out for many receptors and channels.
In general, IC50 refers to the concentration that inhibits the measured activity by half. In the case of `CN(C(=O)c1ccc2c(n1)C(C)(C)CN2c1ccc(Cl)c(F)c1)C1(C(N)=O)CC1` [Example 48, N-(1-carbamoylcyclopropyl)-1-(4-chloro-3-fluorophenyl)-N,3,3-trimethyl-2,3-dihydro-1H-pyrrolo[3,2-b]pyridine-5-carboxamide], the IC50 was in the range of 500 to 10000 nM.

As for `Cc1cc(N(C)CCN(C)C(=O)c2ccc3c(n2)C(C)(C)CN3c2ccc(Cl)c(F)c2)nc(C)c1C(=O)O` [Example 50, 6-((2-(1-(4-chloro-3-fluorophenyl)-N,3,3-trimethyl-2,3-dihydro-1H-pyrrolo[3,2-b]pyridine-5-carboxamido)ethyl)(methyl)amino)-2,4-dimethylnicotinic acid], the IC50 was in the range of 500 to 10000 nM.

For the molecule `CC(C)(CO)NC(=O)c1ccc2c(n1)C(C)(C)CN2c1ccc(Cl)c(F)c1` [Example 51, 1-(4-chloro-3-fluorophenyl)-N-(1-hydroxy-2-methylpropan-2-yl)-3,3-dimethyl-2,3-dihydro-1H-pyrrolo[3,2-b]pyridine-5-carboxamide], the IC50 lay within 500 to 10000 nM.

With `CC(C)(O)CNC(=O)c1ccc2c(n1)C(C)(C)CN2c1ccc(Cl)c(F)c1` [Example 52, 1-(4-chloro-3-fluorophenyl)-N-(2-hydroxy-2-methylpropyl)-3,3-dimethyl-2,3-dihydro-1H-pyrrolo[3,2-b]pyridine-5-carboxamide], the IC50 is greater than 10000 nM.

Regarding `CCC1(C)CN(c2ccc(Cl)c(F)c2)c2ccc(C(=O)N3CCNC(=O)C3(C)C)nc21` (centres unmarked) [Example 53, 4-(1-(4-chloro-3-fluorophenyl)-3-ethyl-3-methyl-2,3-dihydro-1H-pyrrolo[3,2-b]pyridine-5-carbonyl)-3,3-dimethylpiperazin-2-one], the IC50 was less than 500 nM.

Consider `CCC1(C)CN(c2ccc(Cl)c(F)c2)c2ccc(C(=O)NC3(C(N)=O)CC3)nc21` (centres unmarked) [Example 54, N-(1-carbamoylcyclopropyl)-1-(4-chloro-3-fluorophenyl)-3-ethyl-3-methyl-2,3-dihydro-1H-pyrrolo[3,2-b]pyridine-5-carboxamide], for which the IC50 was in the range of 500 to 10000 nM.

Regarding `CC1(C)C(=O)NCCN1C(=O)c1ccc2c(n1)C1(CCOCC1)CN2c1ccc(Cl)c(F)c1` [Example 55, 4-(1′-(4-chloro-3-fluorophenyl)-1′,2,2′,3,5,6-hexahydrospiro[pyran-4,3′-pyrrolo[3,2-b]pyridine]-5′-carbonyl)-3,3-dimethylpiperazin-2-one], the 50% inhibitory concentration (IC50) was less than 500 nM.

As for `Cc1cc(N2CCN(C(=O)c3ccc4c(n3)C3(CCOCC3)CN4c3ccc(Cl)c(F)c3)C(C)(C)C2)nc(C)c1C(=O)O` [Example 56, 6-(4-(1′-(4-chloro-3-fluorophenyl)-1′,2,2′,3,5,6-hexahydrospiro[pyran-4,3′-pyrrolo[3,2-b]pyridine]-5′-carbonyl)-3,3-dimethylpiperazin-1-yl)-2,4-dimethylnicotinic acid], the IC50 is less than 500 nM.

As to `CC1(C)C(=O)NCCN1C(=O)c1ccc2c(n1)C1(CC1)CN2c1ccc(Cl)c(F)c1` [Example 57, 4-(1′-(4-chloro-3-fluorophenyl)-1′,2′-dihydrospiro[cyclopropane-1,3′-pyrrolo[3,2-b]pyridine]-5′-carbonyl)-3,3-dimethylpiperazin-2-one], the IC50 is less than 500 nM.

Turning to `CC1(C)C(=O)NCCN1C(=O)c1ccc2c(n1)C1(CCOC1)CN2c1ccc(Cl)c(F)c1` (centres unmarked) [Example 58, 4-(1′-(4-chloro-3-fluorophenyl)-1′,2′,4,5-tetrahydro-2H-spiro[furan-3,3′-pyrrolo[3,2-b]pyridine]-5′-carbonyl)-3,3-dimethylpiperazin-2-one], the IC50 was less than 500 nM.

With `Cc1cc(N2CCN(C(=O)c3ccc4c(n3)C3(CCOC3)CN4c3ccc(Cl)c(F)c3)C(C)(C)C2)nc(C)c1C(=O)O` (centres unmarked) [Example 60, 6-(4-(1′-(4-chloro-3-fluorophenyl)-1′,2′,4,5-tetrahydro-2H-spiro[furan-3,3′-pyrrolo[3,2-b]pyridine]-5′-carbonyl)-3,3-dimethylpiperazin-1-yl)-2,4-dimethylnicotinic acid hydrochloride], the IC50 was less than 500 nM.
